These results are taken from PMC5458179, “Oxidative DNA double strand breaks and autophagy in the antitumor effect of sterically hindered platinum(II) complexes in NSCLCs” (Oncotarget, 2017).

A word on the IC50: it is the concentration needed to halve the response being measured.

The subject of one assay is HCT-116. Kind of assay: MTT cytotoxicity assay. It is filed as cell-based, human. Conditions: 48 h drug exposure. The method, then: (§1) The results reveal that the steric hindrance plays a significant role in the cytotoxicity of complex 3.
(§2) Human cancer cell lines HepG2, SGC-7901, HCT-116, A549, NCI-H1299 and MCF-7 as well as normal liver cell line L02 were purchased from the Cell Bank of Shanghai Institute of Cell Biology. Among them, MCF-7, HepG2 cells were cultured at 37 °C in 5% CO2 with DMEM supplemented with 10% fetal bovine serum (FBS) (Hyclone, Lifescience, USA) and 1% penicillin/streptomycin (Beyotime, Nantong, China), while HCT-116, SGC-7901, A549, NCI-H1299 and L02 cells were cultured at 37 °C in 5% CO2 with RPMI-1640 supplemented with 10% FBS and 1% penicillin/streptomycin. Cells were passed every 2 days and restarted from frozen stocks upon reaching pass number 20.
(§3) In vitro cytotoxicity of the platinum compounds against human hepatocellular carcinoma (HepG-2), gastric carcinoma (SGC-7901), non-small-cell lung cancer (A549), and colorectal cancer (HCT-116) cell lines were measured by the MTT assays. Briefly, the cells were seeded in 96-well cultured plates at a density of 5000 cells/well. After overnight incubation (16 h), the cells were treated with the platinum complexes. After 48 h of incubation, 10 μL of a freshly diluted 3-(4,5-dimethyl-2-thiazolyl)-2,5-diphenyl-2H-tetrazolium bromide (MTT) solution (5 mg/mL) were added to each well and the plates were incubated at 37 °C in a humidified 5% CO2 atmosphere for 4 h. At the end of the incubation period the medium was removed and the formazan product was dissolved in 150 μL of DMSO. The cell viability was evaluated by measurement of the absorbance at 490 nm, using an Absorbance Reader (BioRad). IC50 values (compound concentration that produces 50% of cell growth inhibition) were calculated from curves constructed by plotting cell survival inhibitory rate (%) versus drug concentration logarithm. All experiments were repeated in three times. The reading values were converted to the percentage of control (% cell survival). Cytotoxic effects were expressed as IC50 values.
Background: Tetrazolium assays rely on reduction of a dye to a coloured formazan, in cell work by metabolically active cells.

Another assay has as its system HepG2. The assay can be described thus: MTT cytotoxicity assay. The class given is cell-based, human. Particulars: 48 h drug exposure. As for the experimental part: as §1, §2, §3
The test system of another assay is A549. Kind of assay: MTT cytotoxicity assay. Particulars: 48 h drug exposure. The class given is cell-based, human. The method, then:
as §1
(§4) The effects of complex 3 on the viability of NSCLC cancer cells including A549 and NCI-H1299 were detected respectively via MTT assays at time points of 12, 24, 48 and 72 h (Figure 2A). The results shown that complex 3 could inhibit the viability of the NSCLC cells.
as §2, §3

Another assay relates to NCI-H1299. Kind of assay: MTT cytotoxicity assay. It is filed as cell-based, human. Particulars: 48 h drug exposure, read-out: IC50 NCI-H1299. The method, then:
as §1, §4, §2, §3

For a further assay, the system named is MCF-7. Kind of assay: MTT cytotoxicity assay. The class given is cell-based, human. Conditions: exposed for 48 h. As for the experimental part:
as §2
In vitro cytotoxicity of the platinum compounds against human hepatocellular carcinoma (HepG-2), gastric carcinoma (SGC-7901), non-small-cell lung cancer (A549), and colorectal cancer (HCT-116) cell lines were measured by the MTT assays. Briefly, the cells were seeded in 96-well cultured plates at a density of 5000 cells/well. After overnight incubation (16 h), the cells were treated with the platinum complexes. […] The cell viability was evaluated by measurement of the absorbance at 490 nm, using an Absorbance Reader (BioRad). […] The reading values were converted to the percentage of control (% cell survival). Cytotoxic effects were expressed as IC50 values.

Assay [1] concerns A549 cells. The assay can be described thus: Annexin V-FITC/PI apoptosis assay (flow cytometry). It is filed as cell-based, human. Conditions: A549, 50 μM for 24 h (figure legend and method: 10 μM). The method, then:
(§5) Apoptosis is a crucial programmed death form of aging or damaged cells. […] To further explore the impact of complex 3 on long-term clonogenic survival, colony formation assay was performed.
(§6) Annexin V-FITC apoptosis detection kit (Keygen, Jiangsu, China) assay was performed according to the manufacturer's protocol. […] Then the cells were collected, resuspended in binding buffer (pH 7.5, 10 mM HEPES, 2.5 mM CaCl2 and 140 mM NaCl), incubated with Annexin V-FITC and then PI for 10 min in the dark at room temperature, the processed cells were analyzed by flow cytometry (FACSCalibur, Becton Dickinson) and a computer station running Cell-Quest software. (BD Biosciences, Franklin Lakes, NJ).
A general note: In flow cytometry, cells or beads pass a laser one at a time.

For another assay, the system named is NCI-H1299 cells. The assay can be described thus: Annexin V-FITC/PI apoptosis assay (flow cytometry). It is filed as cell-based, human. Conditions: NCI-H1299, 50 μM for 24 h (figure legend and method: 10 μM). As for the experimental part:
as §5, §6

The subject of another assay is p-Akt. The assay can be described thus: Western blot of PI3K/Akt/mTOR pathway. It is filed as cell-based, human. Conditions: A549, 10 μM, 24 h, relative to control. The text has this:
(§7) The mammalian target of rapamycin (mTOR) kinase is used to regulate autophagy as controlled though oxidative stress, hypoxia and growth receptors. The phosphatidylinosital-3 kinase (PI3K)/Akt signaling pathway activates mTOR through phosphorylating and inactivating the tuberous sclerosis complex (TSC)1–TSC2 complex. Inhibition of mTOR results in activation of autophagy. […] At the same time, levels of the p-Akt protein decreased to 0.95-, 1.02-, and 0.39-folds, respectively (Figure 7B). […] As a results, the administration of complex 3 decreased levels of proteins in PI3K/Akt/mTOR signaling pathways.
(§8) Lysates were centrifuged at 12,000 g for 0.5 h at 4°C. The concentrations of total proteins were measured using the BCA assay method with Varioskan spectrofluorometer and spectrophotometer (Thermo, Waltham, MA) at 562 nm. Protein (20–100 μg) prepared from the indicated cells was loaded per lane and electrophoresed in 8% or 10% sodium dodecyl sulfate polyacrylamide gel electrophoresis (SDS-PAGE), and then transferred onto polyvinylidene difluoride (PVDF) Immobilon-P membrane (Bio-Rad, USA) using a transblot apparatus (Bio-Rad, USA). The membranes were blocked with 5% (w/v) non-fat milk at 0.5 h at 37°C, followed by overnight incubation at 4°C with primary antibodies diluted in PBST. After washing with PBST, the membranes were incubated for 1 h with an IRDye´800 conjugated secondary antibody diluted 1:20000 in PBST, and the labeled proteins were detected with an Odyssey Scanning System (Li-COR., Lincoln, Nebraska, USA).
For orientation: A western blot detects proteins with antibodies after separation by electrophoresis.

In another assay the test system is p-mTOR. Kind of assay: Western blot of PI3K/Akt/mTOR pathway. The class given is cell-based, human. Particulars: A549, 10 μM, 24 h, relative to control.
Description: as §7, §8

For assay [2], the system named is A549 cells. Kind of assay: Autophagy by acridine orange flow cytometry (AVOs). The class given is cell-based, human. Particulars: A549, NAC pretreatment. The method, then:
(§9) The role of complex 3-induced autophagy in cell death was further analyzed (Figure 6). When A549 cancer cells were treated with complex 3 of 10 μM, the protein expression of LC3-II was increased (Figure 6A). […] Treatment with complex 3 for 24 h caused a 4.5-folds increase in cells undergoing autophagy (Figure 6C). […] Moreover, Bax and Bcl-2 expressions were measured by western blot analysis of whole cell lysates.
(§10) To investigate the role of ROS in complex 3-induced cell death, the level of intracellular H2O2 was measured. […] Exposure of A549 cells to NAC reduced levels of LC3-II from 2.3- to 1.5-folds (Figure 8B). […] In parallel, the complex 3-induced increase ratio of Bax/Bcl-2 was suppressed by NAC (Figure 8E).
Flow cytometry with acridine orange staining as described in a previous study was used to detect and quantify the AVOs, one of the characteristicsof autophagy. At the end of individual experiments, A549 cells were collected in phenol red-free RPMI 1640 medium. Green (FL-1) and red (FL-3) fluorescences of acridine orange were measured using a flow cytometer and CellQuest software (Becton Dickinson, San Jose, CA). The sum of the upper-left and upper-right quadrants of the cytogram was used to estimate the percentage of cells undergoing autophagy.

The subject of assay [3] is A549 cells. The assay can be described thus: Quantification of apoptotic cells (annexin V/PI flow cytometry). The class given is cell-based, human. Conditions: A549, NAC pretreatment. As for the experimental part:
as §9, §10
The mode of cell death was analyzed by flow cytometry with annexin V/propidium iodide (PI) double-staining to detect membrane events according to a previous study. After individual treatments, whole cells were collected in 4-(2-hydroxyethyl)-1-piperazineethanesulfonic acid (HEPES) buffer containing 10 mM HEPES (pH 7.4), 140 mM NaCl, and 2.5 mM CaCl2. Cells were subsequently stained with annexin V (2.5 μg/ml) and PI (2 ng/ml) for 20 min, followed by analysis by flow cytometry (Beckman Coulter). Cystograms of the four quadrants in the figure were used to distinguish normal (annexin V^−/PI^−), early apoptotic (annexin V^+/PI^−), late apoptotic(annexin V^+/PI^+), and necrotic cells (annexin V^−/PI^+). The sum of early apoptosis and late apoptosis is presented as total apoptosis.

For another assay, the system named is pET28a plasmid DNA. Kind of assay: Agarose gel electrophoresis of plasmid DNA. Conditions: 0, 20, 80, 320, 640 μM.
In another assay the test system is SGC-7901. The assay can be described thus: MTT cytotoxicity assay. It is filed as cell-based, human. Particulars: 48 h drug exposure. As for the experimental part:
as §1, §2, §3

The subject of assay [4] is L02 normal liver cell line. Kind of assay: MTT cytotoxicity assay. It is filed as cell-based. Conditions: 48 h drug exposure. The method, then:
as §1, §2, §3

Description for pET28a plasmid DNA: The tested complexes were incubated with DNA at different concentrations.
Appropriate dilutions of tested complexes were made, and the required volumes of solutions were added to achieve a set of concentrations in the range of 0–100 mm; pET22b DNA (5 mL, 0.20 mg) was added to each tube, and the mixtures of platinum complexes and pET22b plasmid DNA were then incubated at 37°C for 6 or 24 h. Afterward, the agarose gel (made up to 1% w/v) containing ethidium bromide was prepared with TA buffer (50 mm Tris-acetate, pH 7.5). The mixtures with loading buffer (1 mL) underwent electrophores is in agarose gel in TA buffer at 100 V for 60 min. Bands were imaged using a Molecular Imager (Bio-Rad, USA) under UV light.

Regarding `CC(C)CN[C@@H]1CCCC[C@H]1N.O=C([O-])CC(=O)[O-].[Pt+2]` [Complex 3a, [(1R,2R)-N^1-(2-methylpropyl)-1,2-cyclohexanediamine-N,N’](malonato-O,O’), reference compound], the IC50 in the assay with HCT-116 is 65.8 ± 4.95 µM; in the assay on HepG2, > 100 µM; in the assay on A549, 77.5 ± 5.04 µM; with NCI-H1299, 94.9 ± 6.74 µM; with MCF-7, > 100 µM. The “early and median apoptotic cells” value worked out at 12.37% in the assay with A549 cells [1] and 4.58% in the assay on NCI-H1299 cells. In addition, in the assay with NCI-H1299 cells, the late apoptotic cells is on record as 4.12%. Moreover, the “levels of the p-Akt protein” value in the assay with p-Akt amounted to 0.39 folds. Also, the “amounts of p-mTOR” value in the assay on p-mTOR was 0.69 folds. Moreover, the “effect of NAC pretreatment on percentage of autophagy” value in the assay on A549 cells [2] is given as “no decreased percentage of autophagy”. Further, the “effect of NAC pretreatment on percentage of apoptosis” value in the assay on A549 cells [3] is given as “no decreased percentage”. Moreover, the “gel electrophoretic mobility of plasmid DNA” value with pET28a plasmid DNA is “no migration was observed”.

Turning to `CC(C)C[NH+]1[C@@H]2CCCC[C@H]2[NH+](CC(C)C)[Pt-2]12[O]C(=O)C1(CCC1)C(=O)[O]2` (stereo partly shown) [Complex 4], the IC50 (in the assay with HCT-116; in the assay with HepG2; with SGC-7901; in the assay on A549; with NCI-H1299; in [4]) was > 100 µM throughout.

For `CC(C)C[NH+]1[C@@H]2CCCC[C@H]2[NH+](CC(C)C)[Pt-2]12[O]C(=O)C(=O)[O]2` (stereo partly shown) [Complex 2], the half-maximal inhibitory concentration (IC50) in the assay with HCT-116 was 37 ± 2.76 µM; in the assay with HepG2 it was > 100 µM; in the assay on SGC-7901, > 100 µM; in the assay with A549, 28.4 ± 1.45 µM; with NCI-H1299, > 100 µM; in [4], > 100 µM.

As for `CC(C)C[NH+]1[C@@H]2CCCC[C@H]2[NH+](CC(C)C)[Pt-2]1([Cl])[Cl]` (stereo partly shown) [Complex 1], the IC50 in the assay on HCT-116 was 70.5 ± 5.56 µM; in the assay on HepG2, 34.1 ± 2.55 µM; with SGC-7901, 44.6 ± 3.24 µM; in the assay on A549, > 100 µM; in the assay on NCI-H1299, > 100 µM; in assay [4], 148 ± 10.6 µM.
